# Tests used:
# H1299 cells = assay: Apoptosis by APO-BRDU staining and flow cytometry; type: cell-based, human; conditions: serum-free medium, 100 ng/ml IGF-I, 3 days
# Protocol: Apoptosis was measured using the APO-BRDU staining kit (Phoenix Flow Systems, San Diego, Calif.) as previously described (Sueoka et al., 2000). Briefly, H1299 cells were untreated or infected with Ad5CMV or Ad5CMV-BP3, and then allowed to grow in serum-free medium or medium containing 10% serum or 100 ng/ml IGF-I for 3 days. Floating and adherent cells were analyzed using a FACScan flow cytometer (Becton Dickinson, San Jose, Calif.) to determine the percentage of apoptotic cells. The percentage of dead cells was determined by FACS analysis of propidium iodide-stained nuclei. Apoptosis was also determined by detecting of nucleosomal DNA fragmentation, which was measured using the TACS apoptotic DNA laddering kit (Trevigen, Inc., Gaithersburg, Md.) according to the manufacturer's protocol. Briefly, DNA was isolated from untreated or virus-infected H1299 cells by incubating the cells in lysis buffer. DNA samples were then subjected to electrophoresis on a 1.5% agarose gel and visualized by ethidium bromide staining. […] Apoptosis was measured using the APO-BRDU staining kit as described above.
# NSCLC cell lines = assay: MTT cell growth assay, NSCLC cell lines; type: cell-based, human; conditions: serum-free medium, 3 days
# Protocol: To measure the effects of IGF-I and IGF-II on proliferation of NSCLC cells, 2×10^3 NSCLC cell lines were incubated in serum-free medium containing 0.01-500 ng/ml IGF-I or IGF-II for 3 days. To measure the effects of Ad5CMV-BP-3 on proliferation of NHBE and NSCLC cell lines, these cells were seeded at 1×10^−2×10^3 cells/well in 96-well plates. After 1 day, cells were untreated or infected with 1×10^3, 5×10^3, or 1×10^4 particles/cell of Ad5CMV-BP3 or Ad5CMV (parental virus) as a viral control. Infection was allowed to occur for 2 h in the absence of serum, and infected cells were grown in medium containing 100 ng/ml or 250 ng/ml IGF-I. After 3 days of incubation, the growth of infected cells was measured by the 3-(4,5-dimethylthiazol-2-yl)-2,5-diphenyltetrazolium bromide (MTT) assay as previously described (Sueoka et al., 2000).
# 1799 cells = assay: MTT proliferation assay, 1799 cells; type: cell-based, human; conditions: 2×10^−6 M or 4×10^−6 M, 2 days
# Protocol: To measure the effects of deguelin on cell proliferation, NHBE, 1799, 1198, 1170-1, and HB56B cells were plated at concentrations of 2×10^3 to 4×10^3 cells/well in 96-well plates. The next day, cells were treated with either 0.1% DMSO as a diluent control or various concentrations of deguelin (final DMSO concentration=0.1%). At the end of the assay time period, cell proliferation was measured by the 3-(4,5-dimethylthiazol-2-yl)-2,5-diphenyltetrazolium bromide (MTT) assay as described (Lee et al., 2002). Six replicate wells were used for each analysis, and data from replicate wells are presented as means with 95% confidence intervals (CIs). For some experiments, the drug concentration required to inhibit cell growth by 50% (IC50) was determined by interpolation from dose-response curves. At least three independent experiments were performed.
# To determine whether deguelin-induced antiproliferative effects on premalignant HBE cells were mediated through the inhibition of the PI3K/Akt pathway, 2×10^5 1799 cells/well or 1×10 ^6 squamous HBE cells/well in six-well plates were infected with 5×10 ^3 particles/cell of a control virus (Ad5CMV) or with 1×10^3 or 5×10^3 particles/cell of Ad5CMV-MyrAkt-HA, an adenoviral vector that expresses a constitutively active Akt. (MyrAkt) in KSFM. After 1 day of infection, cells were treated with 10^−7M or 10^−6M deguelin, 2×10^−6 M or 4×10^−6M N-(4-hydroxyphenyl)retinamide (4-HPR), or 0.1% DMSO as a control and then incubated for 1 or 2 days. Apoptosis was analyzed using the APO-BrdU staining kit for TUNEL, Western blot analyses for caspase-3, and the cleavage of PARP.
# [1] = test system: PI3K/Akt pathway in 1799 cells; assay: Immunoblot of pAkt and pGSK-3β, 1799 cells; type: cell-based, human; conditions: 2-4 μM
# Protocol: Whole cell lysates from 1×10^6 cells were prepared in lysis buffer as described (Lonardo et al., 2002). Equivalent amounts of protein were resolved by sodium dodecyl sulfate (SDS)-polyacrylamide gels (7.5%-12%) and transferred to a nitrocellulose membrane. After the membrane was blocked in Tris-buffered saline (TBS) containing 0.05% Tween 20 (TBST) and 5% (w/v) nonfat powdered milk, the membrane was incubated with primary antibody at the appropriate dilution in TBS-5% nonfat milk at 4° C. for 16 h. The membrane was then washed multiple times with TBST and incubated with the appropriate horseradish peroxidaseconjugated secondary antibody for 1 h at room temperature. The protein-antibody complexes were detected by enhanced chemilurminescence (ECL kit; Amersham, Arlington Heights, Ill.), according to the manufacturer's recommended protocol. […]
# chick embryo CAM = assay: Chorioallantoic membrane angiogenesis induced by bFGF; type: in vivo; conditions: bFGF 50 ng alone, 72 h; positive eggs/total
# Protocol: To assess whether IGFBP-3 is able to inhibit angiogenesis chick embryos were induced with IGFBP3 and dnIGFIR. On day 10, each CAM was exposed to bFGF (50 ng/disk) in the absence or presence of 10^4 particles of Ad5CMV alone, Ad5CMV-IGFBP3, or Ad5CMV-dnIGFIR. After 72 h of incubation, a fat emulsion was injected into the CAM to visualize the blood vessels. CAMs were examined with a microscope to count the positive responsive eggs which have spoke wheel-like vessels. Both IGFBP3 and dnIGFIR inhibited chorioallantoic membrane angiogenesis induced by bFGF FIG. 14. The results are expressed as the percentages of embryos showing activation (FIG. 14A). Positivity for angiogenesis in chick embryos subjected to various conditions was as follows: Collagen alone: 1/5; bFGF (50 ng): 5/5; EV(10^4)+bFGF: 7/8; IGFBP3(10^4)+bFGF: 4/9; dnAKT (10^4)+bFGF: 8/9; dnIGFR (10^4)+bFGF: 4/9; and KP372 (100 nM)+bFGF: 8/9.
# IGF-I = IGF-I (Homo sapiens, UniProt P05019); assay: Western ligand blot of conditioned media; type: binding; conditions: conditioned media of Ad5CMV-BP3-infected H1299 cells, [125I]IGF-I probe
# Protocol: Conditioned media were collected from H1299 cells after adenoviral infection. Western blot and Western ligand blot analyses were performed using 30 μg of whole cell lysate or 30 μl of conditioned media as previously described (Sueoka et al., 2000).
# [2] = test system: IGFBP-3 mRNA in H1299 cells; assay: Northern blot of IGFBP-3 expression after demethylating agent; type: cell-based, human; conditions: 5 days, RPMI 1640 with 2% FCS
# Protocol: NSCLC cell lines and H1299 cells treated with 0.1, 1, or 5 μM of 5-aza-dC (Sigma, St. Luois, Mo.) for 5 days in RPMI 1640 medium containing 2% FCS were lysed in 4.0 M guanidinium isothiocyanate, and total cellular RNA was extracted as described previously (Kim et al., 1995). 20 μg of RNA was subjected to electrophoresis on a 1% agarose gel containing 2% formaldehyde. After gels were soaked in 50 mM NaOH/1×standard saline citrate (SSC) for 20 min followed by 10×SSC for 20 min, RNA was transferred onto a Zeta-Probe membrane (Bio-Rad Laboratories, Hercules, Calif.) overnight by the capillary transfer method. Membranes were cross-linked and then incubated in the hybridization solution containing […] IGFBP-3 or glyceraldehyde-3-phosphate dehydrogenase (GAPDH) cDNA as a control. The probe was labeled using a Prime-It® II Random Primer Kit (Stratagene, La Jolla, Calif.) and harvested with MicroSpin™ S-300 HR Columns (Amersham Phamacia Biotech Inc., Piscataway, N.J.). After overnight incubation, membranes were washed in high stringency condition and exposed to enhanced chemiluminescence (ECL) films for autoradiography.
# Sequence of IGF-I (P05019 49-118 limits assumed, species assumed): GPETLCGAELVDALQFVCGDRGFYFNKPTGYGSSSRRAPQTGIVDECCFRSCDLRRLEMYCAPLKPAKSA
# Sequence of IGF-I (P17936 28-291 partner, species assumed): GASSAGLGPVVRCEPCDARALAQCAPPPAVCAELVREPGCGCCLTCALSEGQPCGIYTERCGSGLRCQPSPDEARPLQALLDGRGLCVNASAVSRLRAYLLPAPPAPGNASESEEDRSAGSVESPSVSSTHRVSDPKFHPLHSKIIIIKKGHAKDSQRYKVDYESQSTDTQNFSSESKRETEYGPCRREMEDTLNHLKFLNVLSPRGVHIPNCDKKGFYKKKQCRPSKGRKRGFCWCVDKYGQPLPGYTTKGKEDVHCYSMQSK
compound,measurement,setting,value
"IGF-I: insulin-like growth factor I, purchased from R&D Systems",effect on serum depletion-induced apoptosis,H1299 cells,rescued H1299 cells from serum depletion-induced apoptosis
same,concentration inducing growth of NSCLC cell lines,NSCLC cell lines,> 10 ng/mL
IGF-II: IGF-II purchased from R&D Systems,mitogenic effect on NSCLC cell growth,NSCLC cell lines,minimal mitogenic effect
"CC1=C(/C=C/C(C)=C/C=C/C(C)=C/C(=O)Nc2ccc(O)cc2)C(C)(C)CCC1 [4-HPR, N-(4-hydroxyphenyl)retinamide, reference compound]","cell proliferation, control versus constitutively active Akt",1799 cells,no difference in cell proliferation
same,levels of pAkt and pGSK-3β,[1],did not alter levels of pAkt and pGSK-3β
"bFGF: angiogenesis inducer, 50 ng/disk, in the CAM assay",positivity for angiogenesis in chick embryos,chick embryo CAM,5/5
IGFBP-3: insulin growth factor binding protein 3 secreted from Ad5CMV-BP3-infected H1299 cells,binding of secreted IGFBP-3 to IGF-I,IGF-I,bound strongly
Nc1ncn([C@H]2C[C@H](O)[C@@H](CO)O2)c(=O)n1 [5-aza-dC],concentration reactivating IGFBP-3 expression,[2],More than 1 μM

# — patent US20040005294A1, “IGFBP-3 in the diagnosis and treatment of cancer” (priority 2002, published 2004)
